Laboratory results from US8470763B2, “Alpha-amino-N-substituted amides, pharmaceutical composition containing them and uses thereof” (Shanghai Institute of Materia Medica Chinese Academy of …, priority 2007, dated 2013).

Legend:
[1] = test system: HPAF-II (Pancreatic Cancer); test: SRB assay, HPAF-II; format: cell-based; conditions: Homo sapiens, 72 h, read-out: IC50 (μM) (mean ± SD)
Description: (§1) Experimental method: The antineoplasmic activities in vitro of the compounds were determined by SRB assay. The detailed procedure was as follows. The cells in the logarithmic growth phase were inoculated on a 96-well microculture plate with a suitable density (100 μl/well), and allowed to attach overnight, followed by addition of the compound at different concentrations to be treated for 72 h. For each concentration, the test was carried out in triplicate wells, and included control wells containing the aqueous medium of normal saline and a blank well containing all medium without cells for zeroing. After cultured overnight, the cells were treated with the compound at different concentrations for 72 h. After the treatment, the culture medium was removed, and the cells were fixed with 10% (wt/vol) trichloroacetic acid (100 μL/well) at 4° C. for 1 h. The cells were then washed with distilled water for 5 times, and died at room temperature, followed by addition of a SRB solution (4 mg/mL, dissolved in 1% glacial acetic acid) at 100 μL/well. The cells were incubated and stained at room temperature for 15 min, then washed with 1% glacial acetic acid for 5 times to remove the uncombined SRB, and died at room temperature. 100 μL of 10 mM Tris solution was added in each well, and the Optical Density (OD) were measured at a wavelength of 560 nm on a VERSMax ELISA Reader (Molecule Devices). The growth inhibition of the compound against tumor cells was calculated according to the following equation: Growth inhibition (%)=(ODcontrol−ODtreated)/ODcontrol×100%.
(§2) IC50 (the concentration of the sample compound that is required for 50% inhibition of cell growth) was calculated by using the Logit method based on the measurement, and each test was repeated for 3 times to calculate the mean value and standard deviation.

[2] = test system: Zip177 (Liver Cancer); test: SRB assay, Zip177; format: cell-based; conditions: 72 h, read-out: IC50 (μM) (mean ± SD)
Description: as §1, §2

[3] = test system: SGC-7901 (Gastric Cancer); test: SRB assay, SGC-7901; format: cell-based; conditions: Homo sapiens, 72 h, read-out: IC50 (μM) (mean ± SD)
Description: as §1, §2

[4] = test system: HepG2 (Liver Cancer); test: SRB assay, HepG2; format: cell-based; conditions: Homo sapiens, 72 h, read-out: IC50 (μM) (mean ± SD)
Description: as §1, §2

[5] = test system: human breast cancer cells MDA-MB-435 transplanted on nude mice; test: Antineoplasmic activity in vivo, MDA-MB-435 transplanted tumor on nude mice; conditions: for Body Weight(g) Ultimate / TV (mm^3) d21 / RTV: q3w × 3w; for Body Weight(g) Ultimate: i.v. 4 times then peritoneally 5 times; for RTV: d21
Description: Dosage: among 3 groups, the dosages of L538 were set at 5, 10 and 20 mg/kg as the high, middle and low dosages, respectively, administrating intravenously 3 times a week; while MMC was administrated intravenously at the first day whit a dosage of 5 mg/kg.
Animals: BALB/CA nude mice, male, 40-45 days old, body weight: 18±1 g, provided by Shanghai Institute of Materia Medica, Chinese Academy of Sciences. […] Animal number in each group: 7 in negative control group, and 4 in administration group.
The amount of inoculated cells was 5×10^6. After the transplanted tumor was formed by inoculation, it was used after passed for 3 generations in nude mice.
Experimental procedure: tumor tissue in productive phase was cut into nubs of about 1.5 mm^3. Under sterile conditions, the nubs were inoculated subcutaneously in right axillary fossa of the nude mice. The diameters of the transplanted tumors on nude mice were measured by a vernier caliper. When the tumors grew up to 100-200 mm^3, the animals were divided randomly into groups. Mice in experimental groups were administered intravenously every other day. […] The total administration duration was 3 weeks. For the positive control, MMC, Mice were administered intravenously once at the first day of a week, and the total administration duration was 3 weeks. Mice in control groups were administrated physiologic saline in equivalent amount. The diameter of the tumor and weight of mice were measured twice a week. The equation for calculating the TV (tumor volume) was as follows: TV=½×a×b^2, • wherein, a is length and b is width. RTV (relative tumor volume) was calculated based on the measured results, and the equation thereof was as follows: RTV=Vt/V0 • wherein, V0 is the tumor volume measured when the mice were grouped (i.e. d0), and Vt is the tumor volume at each measurement. The evaluation index for the antitumor activity was the relative tumor proliferation rateT/C (%).
The calculation equation was as follows: T/C(%)=(TRTV/CRTV)×100, • wherein, TRTV is the RTV of therapeutic Group and CRTV is RTV of negative control group.

[6] = test system: DU145 (Prostatic Cancer); test: SRB assay, DU145; format: cell-based; conditions: Homo sapiens, DU-145, 72 h, read-out: IC50 (μM) (mean ± SD)
Description: as §1, §2

[7] = test system: HO-8910 (Ovarian Cancer); test: SRB assay, HO-8910; format: cell-based; conditions: 72 h, read-out: IC50 (μM) (mean ± SD)
Description: as §1, §2

[8] = test system: Hela uterine cervix cancer cells; test: MTT assay, Hela cells; format: cell-based; conditions: Homo sapiens, 72 h, 1000 cells per well
Description: The adhered MDA-MB-4355 cells in logarithmic growth phase, were digested by 0.05% trypsogen, counted and formulated into a cell suspension with a medium. After counted, the suspension was inoculated on a 96-well plate with 3000 cells and 100 μl medium per well. The inoculated 96-well plate was placed overnight in an incubator at 37 with 5% CO2 to allow the cells to adhere to the wall. On the next day, the administration of the drugs started. Before the administration, into some of the control wells, each was added 20 μl of the MTT solution (5 mg/ml) without removing the medium therein. After incubated for 3 h, the absorption at A550/690 was recorded as the initial cell concentration. For the drug wells, each was added into 100 μl of medium containing 2 μl of compound solution. For the control wells which use DMSO as background control, each was also added into 100 μl of medium containing 2 μl of DMSO. In addition, each experiment was carried out with adriamycin as the positive control. Subsequently, the 96-well plate was incubated in an incubator at 37 with 5% CO2 for 72 h. each compound was tested in triplicate wells (6 μl of compound solution was put into a sterilized eppendorf centrifuge tube, then 300 μl of medium was added and mixed well, and the mixture was distributed into 3 wells respectively), and at six concentrations which form a gradient. 3 days (72 h) later, 40 μl of MTT solution (5 mg/ml) was put into each well directly (without sucking off the medium therein), and the plate was incubated in the incubator for 3 h and then taken out. The liquid in each well was sucked off, and then 100 μl of DMSO was put into each well to dissolve the crystal completely with slight shake. The absorbance of the solution in each well was determined at 550/690 nm on an ELISA Reader as the cell density after treated with the compound. The growth inhibition of compound against breast cancer cells MDA-MB-435S was represented by the cell survival rate, and IC50 was determined from the profile of cell survival rate vs compound concentration. The calculating formula was as follows: cell survival rate=[(cells+compound)A550/690/(cells+compound vector DMSO)A550/690]×100%
MDA-MB-435S: human breast cancer cells; HCT116: colon cancer cells; A549: lung adenocarcinoma cells; Hela: uterine cervix cancer cells.
The tests were performed in the same manner as that of experimental example 1, except that for Hela cells, after counted, each well was seeded with 1000 cells and 100 μl of medium on a 96-well plate.

[9] = test system: BEL-7402 (Liver Cancer); test: SRB assay, BEL-7402; format: cell-based; conditions: Homo sapiens, 72 h, read-out: IC50 (μM) (mean ± SD)
Description: as §1, §2

[10] = test system: A549 (Lung Cancer); test: SRB assay, A549; format: cell-based; conditions: Homo sapiens, 72 h, read-out: IC50 (μM) (mean ± SD)
Description: as §1, §2

[11] = test system: HCT-116 (Colon Cancer); test: SRB assay, HCT-116; format: cell-based; conditions: Homo sapiens, 72 h, read-out: IC50 (μM) (mean ± SD)
Description: as §1, §2

CO[C@@H](C(=O)N[C@@H](C)C(=O)NCCOC(=O)C12CC3CC(CC(C3)C1)C2)[C@H](O)[C@@H](O)[C@H](O)/C=C/C(C)(C)C [Compound L538] gave an IC50 [1] of 0.65 ± 0.21 µM, an IC50 [2] of 0.37 ± 0.06 µM and an IC50 [3] of 3.92 ± 1.78 µM. The IC50 [4] was 0.45 ± 0.07 µM, the “growth inhibition of transplanted tumor, conclusion” value ([5]; 5, 10 and 20 mg/kg, 3 weeks) was “can significantly depress the growth” and the “T/C (%)” value ([5]; L538 5 mg/kg, q3w × 3w (low dosage group), P >0.05) was 64.7%. For the same compound, the “Body Weight(g) Ultimate” value ([5]; L538 5 mg/kg, initial 19.3 g) was 23.5 g, the “TV (mm^3) d21” value ([5]; L538 5 mg/kg, d0 131 ± 59) was 1144 ± 353 mm^3 and the RTV ([5]; L538 5 mg/kg) was 9.6 ± 3.5. The “T/C (%)” value ([5]; L538 10 mg/kg, q3w × 3w (middle dosage group), P <0.05) was 47.1%, the “Body Weight(g) Ultimate” value ([5]; L538 10 mg/kg, initial 17.7 g) was 21.7 g and the “TV (mm^3) d21” value ([5]; L538 10 mg/kg, d0 133 ± 49) was 951 ± 619 mm^3. For the same compound, the RTV ([5]; L538 10 mg/kg) was 6.9 ± 3.6, the “T/C (%)” value ([5]; L538 20 mg/kg, q3w × 3w (high dosage group), P <0.05) was 36.0% and the “Body Weight(g) Ultimate” value ([5]; L538 20 mg/kg, initial 18.5 g) was 19.7 g. For the same compound, the “TV (mm^3) d21” value ([5]; L538 20 mg/kg, d0 135 ± 37) was 735 ± 501 mm^3, the RTV ([5]; L538 20 mg/kg) was 5.3 ± 3.1 and the “tail stimulus on intravenous administration” value ([5]; after administered intravenously 4 times, every other day) was “too strong tail stimulus to be administered intravenously”. The “increase in body weight” value ([5]; high dosage group) was “did not have an significant increase in body weight”, the “growth inhibition of transplanted tumor” value ([5]; low dosage group) was “did not be depressed obviously” and the IC50 [6] was 0.14 ± 0.04 µM. The IC50 [7] was greater than 20 µM, the IC50 [8] was 91 ± 19 nM and the IC50 [9] was 0.37 ± 0.27 µM. For the same compound, the IC50 [10] was 0.02 ± 0.004 µM and the IC50 [11] was 0.24 ± 0.1 µM.
